What was measured:
[1] = Repeat-dose pharmacological and toxicological studies in dogs; type: in vivo; conditions: daily doses up to 20 mg/kg/day
Source text: Dogs vomit spontaneously for a variety of benign reasons—to expel unwanted content from their stomach, as a result of gastric irritation or in response to colonic irritation. In recent toxicological studies in dogs of various drugs, including isomeric norketotifen, vomiting occurred in both control groups and drug groups and may have been treatment-related, rather than drug-related. The unexpectedly low systemic toxicity of norketotifen and the isomers thereof is believed to be due to low systemic (plasma) concentrations, caused by the fact that norketotifen and the isomers thereof are not circulating in plasma but are accumulating in the skin, which is the largest organ in the body.

[2] = test system: histamine-induced pruritus; experiment: Antipruritic activity, histamine-induced pruritus in mice; type: in vivo, CD-1 mice; conditions: for inhibition of pruritus following histamine injections (in words): intradermal histamine, Example 5, JNJ7777120 and desloratadine 20 mg/kg oral
Experimental: Antipruritic effects were tested in vivo in CD-1 mice, females, 10-12 weeks, according to methods known in the art. The hair was clipped over the rostral part of the back at the interscapular level of the mice one day before the dosing. Before the testing, the mice were placed in individual clear plastic cages for at least one hour for acclimation. After fasting for 1.5 hours, the animals were dosed orally with the test article, dissolved in a vehicle consisting of 1% methylcellulose/water, 10 mL/kg body weight. Sixty minutes after the oral dosing, an intradermal injection of histamine (300 nmol in 20 μl phosphate buffered saline (PBS), pH 7.4) was administered. Immediately after the histamine injection, the bouts of scratches were counted for 40 min. Scratching induced by the histamine vehicle PBS served as control.
Norketotifen was tested in escalating doses and in a supramaximal dose of 100 mg/kg.

[3] = Sedation in human subjects; type: in vivo; conditions: doses of 5 mg and 10 mg, humans
[4] = test system: histamine-induced pruritus; conditions: intradermal histamine, humans and mice; not tested in Example 5; cited from earlier work

Row | Structure (SMILES) | sedation or other adverse events, chronic dosing [1] | inhibition of histamine-induced pruritus at supramaximal dose ([2]; 100 mg/kg oral, histamine 300 nmol intradermal, bouts counted 40 min) | inhibition of histamine-induced pruritus, escalating doses ([2]; escalating oral doses, histamine 300 nmol intradermal) | inhibition of pruritus following histamine injections (in words) [2] | sedation in human subjects [3] | inhibition of pruritus following histamine injections (in words), general statement [4]
1 | O=C1Cc2ccccc2C(=C2CCNCC2)c2ccsc21 [Norketotifen, norketotifen] | without causing sedation or other adverse events | complete inhibition | dose-dependently inhibiting histamine-induced pruritus | potently inhibited | do not produce sedation | 
2 | CC(C)(C(=O)O)c1ccc(C(O)CCCN2CCC(C(O)(c3ccccc3)c3ccccc3)CC2)cc1 (stereo not shown) [fexofenadine] |  |  |  |  |  | not inhibited
3 | CN1CCN(C(=O)c2cc3cc(Cl)ccc3[nH]2)CC1 [JNJ7777120, reference compound] |  |  |  | potently inhibited |  | 

Reference: patent US9333199B2, “Methods of treatment of histamine H-4 receptor-related pruritus associated with nerve disorders” (BRIDGE PHARMA, INC., priority 2013, dated 2016)
